For one compound, inhibition and IC50 results are on record in article PMC6120934, “Inhibiting Multiple Deubiquitinases to Reduce Androgen Receptor Expression in Prostate Cancer Cells” (Scientific Reports, 2018).

Assay type in all cases: biochemical
For one assay, the target named is T1, USP36 (Homo sapiens, UniProt Q9P275).
T1 construct: recombinant
T1 sequence (Q9P275 1-1123): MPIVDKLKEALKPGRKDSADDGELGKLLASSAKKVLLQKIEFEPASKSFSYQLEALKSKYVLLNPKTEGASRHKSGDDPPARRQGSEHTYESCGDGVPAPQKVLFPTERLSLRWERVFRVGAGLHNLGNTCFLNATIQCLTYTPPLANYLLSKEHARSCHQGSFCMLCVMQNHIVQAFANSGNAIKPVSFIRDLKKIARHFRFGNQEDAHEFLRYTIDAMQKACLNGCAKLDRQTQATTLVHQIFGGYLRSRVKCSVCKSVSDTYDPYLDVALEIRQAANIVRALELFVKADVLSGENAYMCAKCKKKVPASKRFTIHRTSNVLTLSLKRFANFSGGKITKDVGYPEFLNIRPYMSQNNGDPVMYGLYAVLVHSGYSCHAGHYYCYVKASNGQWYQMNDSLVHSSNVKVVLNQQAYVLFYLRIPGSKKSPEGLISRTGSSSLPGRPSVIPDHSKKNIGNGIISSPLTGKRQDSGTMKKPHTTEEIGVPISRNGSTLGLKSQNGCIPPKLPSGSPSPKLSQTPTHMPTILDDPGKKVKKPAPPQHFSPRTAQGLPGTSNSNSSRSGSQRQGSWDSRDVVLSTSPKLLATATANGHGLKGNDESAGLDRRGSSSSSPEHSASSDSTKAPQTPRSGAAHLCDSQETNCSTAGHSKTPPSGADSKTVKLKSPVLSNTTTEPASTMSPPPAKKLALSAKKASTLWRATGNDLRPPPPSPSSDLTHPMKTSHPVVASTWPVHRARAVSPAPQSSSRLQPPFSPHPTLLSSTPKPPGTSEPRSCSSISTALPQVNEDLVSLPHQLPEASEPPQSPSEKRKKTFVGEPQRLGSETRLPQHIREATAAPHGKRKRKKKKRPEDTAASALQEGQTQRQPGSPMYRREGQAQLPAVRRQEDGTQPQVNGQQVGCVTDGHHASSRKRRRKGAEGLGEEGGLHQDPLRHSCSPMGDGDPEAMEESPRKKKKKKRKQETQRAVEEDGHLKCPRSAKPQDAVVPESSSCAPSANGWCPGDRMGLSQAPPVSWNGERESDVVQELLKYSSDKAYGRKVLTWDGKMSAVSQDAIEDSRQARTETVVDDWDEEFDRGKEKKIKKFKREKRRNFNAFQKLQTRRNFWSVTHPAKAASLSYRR
Nature of the assay: MALDI-TOF DUB activity assay with diubiquitin, single dose […].

A further assay concerns the target T2, USP16 (Homo sapiens, UniProt Q9Y5T5).
T2 construct: recombinant
The description is as above.

The target in the next assay is T3, USP27X (Homo sapiens, UniProt A6NNY8).
T3 construct: recombinant (recUSP27)
T3 sequence (A6NNY8 1-438): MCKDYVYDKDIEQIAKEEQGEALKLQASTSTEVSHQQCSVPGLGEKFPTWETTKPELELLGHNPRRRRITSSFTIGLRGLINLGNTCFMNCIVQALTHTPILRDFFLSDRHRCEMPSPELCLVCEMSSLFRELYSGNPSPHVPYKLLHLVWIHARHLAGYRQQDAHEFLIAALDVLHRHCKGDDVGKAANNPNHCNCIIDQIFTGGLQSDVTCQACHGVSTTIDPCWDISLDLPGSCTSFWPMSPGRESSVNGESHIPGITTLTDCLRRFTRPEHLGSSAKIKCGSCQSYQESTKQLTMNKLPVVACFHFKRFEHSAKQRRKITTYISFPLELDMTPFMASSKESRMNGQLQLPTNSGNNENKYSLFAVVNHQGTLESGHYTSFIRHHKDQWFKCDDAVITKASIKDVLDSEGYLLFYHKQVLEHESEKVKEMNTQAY
The assay is described as above.

For the next assay, the target named is T4, USP21 (Homo sapiens, UniProt Q9UK80).
T4 construct: recombinant (recUSP21)
T4 sequence (Q9UK80 1-565): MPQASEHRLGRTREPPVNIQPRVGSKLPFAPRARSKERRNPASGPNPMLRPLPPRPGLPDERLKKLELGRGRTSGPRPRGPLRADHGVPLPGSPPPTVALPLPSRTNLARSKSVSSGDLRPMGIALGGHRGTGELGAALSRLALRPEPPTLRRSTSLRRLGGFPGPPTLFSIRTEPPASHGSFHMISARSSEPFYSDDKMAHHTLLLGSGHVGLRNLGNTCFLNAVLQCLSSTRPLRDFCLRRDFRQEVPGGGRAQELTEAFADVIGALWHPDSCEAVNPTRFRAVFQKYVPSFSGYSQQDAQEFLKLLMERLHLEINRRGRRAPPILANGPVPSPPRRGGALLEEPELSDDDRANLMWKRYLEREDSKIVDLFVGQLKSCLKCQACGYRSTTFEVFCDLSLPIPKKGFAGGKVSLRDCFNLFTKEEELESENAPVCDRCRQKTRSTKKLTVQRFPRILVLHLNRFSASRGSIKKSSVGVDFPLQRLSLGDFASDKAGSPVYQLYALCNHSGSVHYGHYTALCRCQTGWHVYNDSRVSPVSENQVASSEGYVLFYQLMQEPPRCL
Nature of the assay: MALDI-TOF DUB activity assay with diubiquitin; […] inhibition at […].

In general, inhibition refers to the change of the read-out against control, counted positive when it falls. Higher therefore signals a response far below the control. One may read the IC50 as the midpoint of a concentration-inhibition curve. Lower therefore signals greater potency.

Each structure is given as a SMILES string.

T2 sequence (Q9Y5T5 whole entry): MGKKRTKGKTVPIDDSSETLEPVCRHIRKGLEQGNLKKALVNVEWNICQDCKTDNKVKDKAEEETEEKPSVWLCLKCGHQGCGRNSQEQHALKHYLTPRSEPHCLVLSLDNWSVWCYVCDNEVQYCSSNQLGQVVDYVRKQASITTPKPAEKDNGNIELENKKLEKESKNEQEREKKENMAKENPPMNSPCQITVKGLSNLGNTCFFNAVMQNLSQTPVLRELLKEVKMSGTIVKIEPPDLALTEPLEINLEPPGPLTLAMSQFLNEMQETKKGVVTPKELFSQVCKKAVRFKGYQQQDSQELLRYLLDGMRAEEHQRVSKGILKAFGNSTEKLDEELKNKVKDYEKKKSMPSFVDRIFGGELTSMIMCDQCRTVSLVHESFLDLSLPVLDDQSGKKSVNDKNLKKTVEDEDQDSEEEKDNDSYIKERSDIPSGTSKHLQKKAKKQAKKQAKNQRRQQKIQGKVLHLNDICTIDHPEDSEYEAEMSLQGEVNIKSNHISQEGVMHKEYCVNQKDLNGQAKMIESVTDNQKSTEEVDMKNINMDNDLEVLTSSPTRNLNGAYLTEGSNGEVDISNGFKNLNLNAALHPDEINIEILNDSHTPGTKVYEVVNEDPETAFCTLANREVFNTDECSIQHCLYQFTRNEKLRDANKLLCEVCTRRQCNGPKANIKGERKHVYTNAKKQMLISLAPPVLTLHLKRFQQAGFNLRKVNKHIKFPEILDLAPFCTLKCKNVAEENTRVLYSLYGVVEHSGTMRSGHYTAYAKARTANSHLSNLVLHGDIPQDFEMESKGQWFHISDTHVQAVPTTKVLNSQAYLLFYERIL

Take `C=C(C)[C@@H]1CC[C@]2(C(=O)O)CC[C@]3(C)[C@H](CC[C@@H]4[C@@]5(C)CC[C@H](O)C(C)(C)[C@@H]5CC[C@]43C)[C@@H]12` [BA, betulinic acid]: the figures for the inhibition at 10 µM at USP36, on USP16 and on USP27X were 40%, 40% and 60%, respectively. In addition, half-maximal inhibition on USP21 (IC50) was put at 6.1 µM.
